Each block holds one compound with its values, some of them ahead of it.
Columns and labels:
[1] = system: HL-1 cells; assay: Pharmacological stimulation by caffeine in HL-1 cells imaged using NIR-GECO1; format: cell-based, mouse; conditions: 10 mM caffeine
Protocol: (§1) Representative time courses of Ca^2+ influx influenced by pharmacological stimulations of caffeine (10 mM). Spontaneous calcium oscillations were also able to be observed before applications of caffeine.
NIR-GECO1 and NIR-GECO2 were then tested for its performance in cardiovascular research. In one aspect of the present invention, a cell culture of stable immortalized cell lines, known as the HL-1 cell line, derived from mouse atrial cardiomyocytes is used as a model.
(§2) With reference to FIG. 8, NIR-GECO1 expressed in HL-1 (A) and iPSC-CMs (B), and NIR-GECO2 expressed in iPSC-CMs (C) were tested for pharmacological stimulation.
To culture the HL-1 cell line, flasks were pre-coated with gelatin/fibronectin at 37° C. overnight. […]
(§3) An inverted microscope (D1, Zeiss) equipped with a 63× objective lens (NA 1.4, Zeiss) and a multiwavelength LED light source (pE-4000, CoolLED) was used. […] The filter set (T685lpxr dichroic mirror, and ET720/60 emission filter) was used to stimulate ChR2 and to acquire fluorescence imaging of NIR-GECO1. […] Fluorescence signals were recorded by a CMOS camera (ORCA-Flash4.0LT, HAMAMATSU) and controlled by a HC Image software.

[2] = system: iPSC-CMs; assay: Pharmacological stimulation by caffeine in iPSC-CMs imaged using NIR-GECO1 or NIR-GECO2; format: cell-based, human; conditions: 10 mM caffeine
Protocol: as §1, §2
Human iPSC-derived cardiomyocytes (Human iPSC Cardiomyocytes[…]|ax2505) were purchased from Axol Bioscience. The cells were plated in two wells of a 6-well plate and cultured for eight days in Axol's Cardiomyocyte Maintenance Medium to 80-90% confluency. Cells then were re-plated on Fibronectin/Gelatin (0.5%/0.1%) coated glass bottom dishes for final observation with Tyrode's buffer. […]
as §3

[3] = system: voltage-gated L-type calcium channels; assay: L-type calcium channel inhibitors applied to iPSC-CMs, optically paced Ca^2+ transients imaged using K-GECO1 with ChR2; format: cell-based, human; conditions: 1 μM; 470-nm pulses of 40 ms at 0.3 Hz
Text: (A) A representative time course of spontaneous Ca^2+ oscillations in iPSC-CMs as imaged using K-GECO1. (B) Photoactivation of R-GECO1 and (C) K-GECO1 in iPSC-CMs. Cells with and without spontaneous activities are shown in trace (i) and (ii), respectively. (D) Combined use of K-GECO1 and channelrhodopsin-2 (ChR2) in iPSC-CMs for all-optical control and observation of Ca^2+ transients. Illumination with 470-nm light at a pulse duration of 150 ms for optical control is indicated by arrowheads. (E) Small molecular inhibitors of the voltage-gated L-type calcium channels were applied to iPSC-CMs. iPSC-CMs were plated out at low density and exposed to clinically relevant doses of 100 nM and 1 μM for nifedipine and verapamil, respectively. Traces were obtained with optical stimulation by 470-nm light at a pulse duration of 40 ms at 0.3 Hz. […]
as §3, with “set (Q565lp” for “set (T685lpxr”, “and HQ620/60” for “and ET720/60”, “of K-GECO1 or R-GECO1.” for “of NIR-GECO1.”, “recorded using” for “recorded by”, “HAMAMATSU)” for “HAMAMATSU) and”

[4] = Ca^2+ titration of purified NIR-GECO variants (EGTA-buffered Ca^2+ solutions); format: binding; conditions: Ca^2+ titration of purified protein, 25° C.; read-out: apparent Kd
Text: (§4) NIR-GECO1 is a near infrared indicator and is engineered from a naturally-monomeric infrared fluorescent proteins (mIFP). NIR-GECO1 has absorbance and emission peaks at 678 and 704 nm, respectively, and undergoes a 90% decrease in fluorescence intensity upon binding Ca^2+, serving as an inverse response indicator contrast to K-GECO1, as shown in FIG. 2B.
(§5) To purify NIR-GECO variants for in vitro characterization, the gene encoding variants of interest with a poly-histidine tag on the C terminus, was expressed from the pBAD vector. Bacteria were lysed with a cell disruptor (Constant Systems Ltd) and then centrifuged at 15,000 g for 30 min, and proteins were purified by Ni-NTA affinity chromatography (Agarose Bead Technologies). The buffer was typically exchanged to 10 mM MOPS, 100 mM KCl (pH 7.2) with centrifugal concentrators (GE Healthcare Life Sciences).
Ca^2+ titrations were carried out using EGTA-buffered Ca^2+ solutions (Calcium Calibration Buffer Kit no. 1, Life Technologies). We prepared buffers by mixing a CaEGTA buffer (30 mM MOPS, 100 mM KCl, 10 mM EGTA, 10 mM CaCl2) and an EGTA buffer (30 mM MOPS, 100 mM KCl, 10 mM EGTA) to give free Ca^2+ concentrations ranging from 0 to 39 μM at 25° C. Fluorescence intensities were plotted against Ca^2+ concentrations and fitted by a sigmoidal binding function to determine the Hill coefficient and Kd.

[5] = In vitro fluorescence characterization of purified NIR-GECO1; format: physicochemical; conditions: inverse response indicator
Text: as §4
as §5, with “The buffer was typically exchanged to 10 mM MOPS, 100 mM KCl (pH 7.2) with centrifugal concentrators (GE Healthcare Life Sciences).” left out
The extinction coefficients were determined by comparing the absorbance value at 678 nm to the absorbance value at the 391 nm and assuming an extinction coefficient of 39,900 M^− cm^− at 391 nm. […] The concentration of NIR-GECO variants (Ca^2+-free), NIR-GECO variants (Ca^2+-saturated) and mIFP was adjusted to have absorbance of 0.2-0.6 at 650 nm. A series of dilutions, with absorbance ranging from 0.01 to 0.05, were prepared, and integrated emission intensity versus absorbance was plotted. Quantum yields were determined from the slopes (S) of each line using the equation Φprotein=Φstandard*(Sprotein/Sstandard).

[6] = system: iPSC-CMs; assay: Blue-light photoactivation testing of GECIs expressed in iPSC-CMs; format: cell-based, human; conditions: 0.19 W/cm^2 of 470-nm LED light
Text: (A) A representative time course of spontaneous Ca^2+ oscillations in iPSC-CMs as imaged using K-GECO1. (B) Photoactivation of R-GECO1 and (C) K-GECO1 in iPSC-CMs. Cells with and without spontaneous activities are shown in trace (i) and (ii), respectively. (D) Combined use of K-GECO1 and channelrhodopsin-2 (ChR2) in iPSC-CMs for all-optical control and observation of Ca^2+ transients. Illumination with 470-nm light at a pulse duration of 150 ms for optical control is indicated by arrowheads. (E) Small molecular inhibitors of the voltage-gated L-type calcium channels were applied to iPSC-CMs. iPSC-CMs were plated out at low density and exposed to clinically relevant doses of 100 nM and 1 μM for nifedipine and verapamil, respectively. Traces were obtained with optical stimulation by 470-nm light at a pulse duration of 40 ms at 0.3 Hz.
FIG. 7. Examination of photoactivation effects of NIR-GECO1 and NIR-GECO2 expressed in iPSC-CMs. […]
as §3, with “set (Q565lp” for “set (T685lpxr”, “and HQ620/60” for “and ET720/60”, “of K-GECO1 or R-GECO1.” for “of NIR-GECO1.”, “recorded using” for “recorded by”, “HAMAMATSU)” for “HAMAMATSU) and”, “software. […]” for “software.”

Compound: Cn1c(=O)c2c(ncn2C)n(C)c1=O [caffeine]
fluorescence intensity change (inverse indicator: increase in cytosolic Ca^2+ concentration) [1]: significant decreases in fluorescence intensities
fluorescence intensity change (inverse indicator: increase in cytosolic Ca^2+ concentration) [2]: significant decreases in fluorescence intensities

Compound: COc1ccc(CCN(C)CCCC(C#N)(c2ccc(OC)c(OC)c2)C(C)C)cc1OC (centres unmarked) [verapamil]
effect on triggered intensity change as imaged using K-GECO1 [3]: suppress the triggered intensity change

Kd [4]: 0.215 µM
decrease in fluorescence intensity upon binding Ca^2+ [5]: 90%
Compound: NIR-GECO1: near infrared genetically encoded Ca^2+ indicator engineered from monomeric infrared fluorescent protein mIFP (SEQ ID NO. 6)
photoactivation: changes in fluorescence intensity under illumination ([6]; pulse duration 40 ms): no significant changes in fluorescence intensity

Kd [4]: 0.48 µM
Compound: NIR-GECO2: near infrared Ca^2+ indicator sharing 99% sequence identity with NIR-GECO1 (SEQ ID NO. 7)
photoactivation: changes in fluorescence intensity under illumination ([6]; pulse duration 100 ms): no significant changes in fluorescence intensity
